Laboratory results: article PMC3355305, “Localized Dimerization and Nucleoid Binding Drive Gradient Formation by the Bacterial Cell Division Inhibitor MipZ” (Molecular Cell, 2012)
Substitutions are numbered along the chain they refer to.

Experiments:
K13A [1] = target: T1, K13A (Caulobacter vibrioides, UniProt Q9A6C9, K13A); test: Stopped-flow FRET transient kinetics of mant-ATP binding to MipZ (excitation 297 nm, 360 nm cut-off) at 30 °C in 50 mM Hepes/NaOH pH 7.2, 50 mM KCl, 10 mM MgCl2, 1 mM β-mercaptoethanol; KD calculated as koff/kon, with koff from displacement by excess unlabeled nucleotide.
T1 construct: gene mipZ; hexahistidine-tagged, full length, overproduced in E. coli Rosetta2(DE3)pLysS; constitutively monomeric
T1 sequence (Q9A6C9 1-278 K13A): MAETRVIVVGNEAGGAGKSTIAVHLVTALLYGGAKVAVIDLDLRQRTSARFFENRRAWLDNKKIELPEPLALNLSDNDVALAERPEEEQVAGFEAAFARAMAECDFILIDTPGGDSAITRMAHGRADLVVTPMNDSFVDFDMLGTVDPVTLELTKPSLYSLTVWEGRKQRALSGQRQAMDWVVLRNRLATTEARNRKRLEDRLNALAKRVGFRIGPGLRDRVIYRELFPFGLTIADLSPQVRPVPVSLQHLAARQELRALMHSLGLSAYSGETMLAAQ
Text: (§1) Once released from the dimeric complex, MipZ monomers must undergo nucleotide exchange to enter the next reaction cycle (Figure 2A). To clarify the requirements for the exchange reaction, we studied the nucleotide binding kinetics of MipZ by monitoring its interaction with methylanthraniloyl (mant)-labeled ADP and ATP analogs (Figure S3). Since the mant group blocks dimer formation, our measurements specifically focused on the initial nucleotide-binding step without interference from subsequent reactions.
(§2) Figure S3. Steady-state and transient kinetic analysis of nucleotide binding to MipZ, Related to Table 2.
(§3) (A) Fluorescence emission spectra of mant-ATP. MipZ (1 µM) and/or mant-ATP (60 µM) were mixed in buffer BC containing no (+ Mg2+) or 10 mM (- Mg2+) EDTA. Emission spectra were recorded in a PC1 photon-counting spectrofluorimeter (ISS) using fluorescence resonance energy transfer (FRET) and an excitation wavelength of 290 nm.
(§4) (B) Association of MipZ with mant nucleotides.
(§5) (data not shown), necessitating the use of ADP and ATP analogues that carried a fluorescent methylanthraniloyl (mant) group attached to the 2'- or 3'-hydroxy group of the ribose moiety. Due to the bulkiness of the mant group and a critical role of these hydroxy groups in MipZ dimerization, the modified nucleotides are predicted to block dimer formation, consistent with their failure to be hydrolyzed by MipZ or mediate MipZ self-association in the SPR assay (data not shown). This circumstance allowed us to focus the measurements on the initial nucleotide binding step without interference from subsequent reactions.
(§6) Interaction of the mant group with the protein surface led to a marked increase in fluorescence (panel A). Consistent with the easy accessibility of the nucleotide-binding site and the lack of major conformational changes, the transients recorded after rapid mixing of MipZ with mant nucleotides could be fitted to single-exponential equations, indicating single-step binding reactions.
(§7) Shown is a typical curve representing the change in mant fluorescence upon binding of mant-ATP (30 µM) to MipZ (1 µM).
(§8) Fitting of the data yielded a pseudo-first order rate constant (kobs) of 4.7 s-1.
(§9) (C) Determination of the second-order association rate constants (kon). The pseudo-first order rate constants for the association of […]
(§10) determining the second-order rate constant of the association reaction. Shown is a representative graph in which the kobs values measured for mant-ATP were plotted against the corresponding mant-ATP concentrations. Fitting of the data to the linear function kobs=kon[mant-ATP]+koff yielded a value of 6.8 x 104 M-1s-1 for kon.
(§11) (D) Dissociation of mant nucleotides from MipZ. In order to determine the dissociation rate constants (koff), we monitored the displacement of mant-labeled nucleotides from MipZ by an excess of unlabeled nucleotide. All transients obtained could be fitted to single-exponential functions. Shown is a typical curve representing the change in mant fluorescence upon dissociation of mant-ATP (30 µM) from MipZ (1 µM) in the presence of 2 mM ATP. […]

WT (MipZ) [2] = target: T2, WT (MipZ) (Caulobacter vibrioides, UniProt Q9A6C9); test: as above
T2 construct: hexahistidine-tagged, full length, overproduced in E. coli Rosetta2(DE3)pLysS
T2 sequence (Q9A6C9 1-278): T1 sequence (Q9A6C9 1-278 K13A) with A13K
Text: as §1, §2, §3, §4, §5, §6, §7, §8, §9, §10, §11

K18Q = target: T3, K18Q (Caulobacter vibrioides, UniProt Q9A6C9, K18Q); test: as above
T3 construct: gene mipZ; hexahistidine-tagged, full length, overproduced in E. coli Rosetta2(DE3)pLysS; constitutively monomeric
T3 sequence (Q9A6C9 1-278 K18Q): T1 sequence (Q9A6C9 1-278 K13A) with A13K, K18Q
Text: as §1, §2, §3, §4, §5, §6, §7, §8, §9, §10, §11

D42A [3] = target: T4, D42A (Caulobacter vibrioides, UniProt Q9A6C9, D42A); test: as above
T4 construct: gene mipZ; hexahistidine-tagged, full length, overproduced in E. coli Rosetta2(DE3)pLysS
T4 sequence (Q9A6C9 1-278 D42A): T1 sequence (Q9A6C9 1-278 K13A) with A13K, D42A
Text: as §1, §2, §3, §4, §5, §6, §7, §8, §9, §10, §11

G14V [4] = target: T5, G14V (Caulobacter vibrioides, UniProt Q9A6C9, G14V); test: as above
T5 construct: gene mipZ; hexahistidine-tagged, full length, overproduced in E. coli Rosetta2(DE3)pLysS; constitutively monomeric
T5 sequence (Q9A6C9 1-278 G14V): T1 sequence (Q9A6C9 1-278 K13A) with A13K, G14V
Text: as §1, §2, §3, §4, §5, §6, §7, §8, §9, §10, §11

K13A [5] = target: T1, K13A; test: Stopped-flow FRET transient kinetics of mant-ADP binding to MipZ (excitation 297 nm, 360 nm cut-off) at 30 °C in 50 mM Hepes/NaOH pH 7.2, 50 mM KCl, 10 mM MgCl2, 1 mM β-mercaptoethanol; KD calculated as koff/kon, with koff from displacement by excess unlabeled nucleotide.
Text: as §1, §2, §3, §4, §5, §6, §7
(§12) Fitting of the data yielded a pseudo-first order rate constant (kobs) of 4.7 s-1. […]
(§13) determining the second-order rate constant of the association reaction. Shown is a representative graph in which the kobs values measured for mant-ATP were plotted against the corresponding mant-ATP concentrations. […]
as §11, with “All transients obtained could be fitted to single-exponential functions.” left out

WT (MipZ) [6] = target: T2, WT (MipZ); test: as above
Text: as §1, §2, §3, §4, §5, §6, §7, §12, §13
as §11, with “All transients obtained could be fitted to single-exponential functions.” left out

D42A [7] = target: T4, D42A; test: as above
Text: as §1, §2, §3, §4, §5, §6, §7, §12, §13
as §11, with “All transients obtained could be fitted to single-exponential functions.” left out

G14V [8] = target: T5, G14V; test: as above
Text: as §1, §2, §3, §4, §5, §6, §7, §12, §13
as §11, with “All transients obtained could be fitted to single-exponential functions.” left out

Compound	Kd (K13A [1]) [µM]	Kd (WT (MipZ) [2]) [µM]	Kd (K18Q) [µM]	Kd (D42A [3]) [µM]	Kd (G14V [4]) [µM]	Kd (K13A [5]) [µM]	Kd (WT (MipZ) [6]) [µM]	Kd (D42A [7]) [µM]	Kd (G14V [8]) [µM]
CNc1ccccc1C(=O)O[C@H]1[C@@H](O)[C@H](n2cnc3c(N)ncnc32)O[C@@H]1CO[P@@](=O)(O)O[P@](=O)(O)OP(=O)(O)O [mant-ATP, 2'/3'-O-methylanthraniloyl-ATP (methylanthraniloyl-labeled ATP)]	38	31	121	58	1.3				
CNc1ccccc1C(=O)O[C@H]1[C@@H](O)[C@H](n2cnc3c(N)ncnc32)O[C@@H]1COP(=O)(O)OP(=O)(O)O [mant-ADP, 2'/3'-O-methylanthraniloyl-ADP (methylanthraniloyl-labeled ADP)]						41	26	69	4.5
